Where a SMILES comes first, the peptide text is derived from it. Side-chain parts run from the residue outwards. [ ]: non-standard residue; d: D form. The star is where a group is joined. X3 = O=Cn1cc(C[C@@H](NC(=O)C2=C[C@@H](O)[C@@H](O)[C@H](O)C2)C(=O)*)c2ccccc21; Shikimoyl = O=C(C1=C[C@@H](O)[C@@H](O)[C@H](O)C1)*; Quinoline4carbonyl = O=C(c1ccnc2ccccc12)*; dPhe(4-Cl) = N[C@H](Cc1ccc(Cl)cc1)C(=O)O; d2Nal = N[C@H](Cc1ccc2ccccc2c1)C(=O)O; Lys(iPr) = CC(C)NCCCC[C@H](N)C(=O)O; NMeY = CN[C@@H](Cc1ccc(O)cc1)C(=O)O; d3Pal = N[C@H](Cc1cccnc1)C(=O)O; Nicotinoyl = O=C(c1cccnc1)*; Picolinoyl = O=C(c1ccccn1)*; dOrn = NCCC[C@@H](N)C(=O)O; 2Furoyl = O=C(c1ccco1)*; Propionyl = CCC(=O)*; Ahx = NCCCCCC(=O)O; azaGly = NNC(=O)O; βAla = NCCC(=O)O

This experiment deals with T1, LHRH receptor (Rattus norvegicus, UniProt P30969).
T1 construct: endogenous in cells
T1 sequence (P30969 1-327): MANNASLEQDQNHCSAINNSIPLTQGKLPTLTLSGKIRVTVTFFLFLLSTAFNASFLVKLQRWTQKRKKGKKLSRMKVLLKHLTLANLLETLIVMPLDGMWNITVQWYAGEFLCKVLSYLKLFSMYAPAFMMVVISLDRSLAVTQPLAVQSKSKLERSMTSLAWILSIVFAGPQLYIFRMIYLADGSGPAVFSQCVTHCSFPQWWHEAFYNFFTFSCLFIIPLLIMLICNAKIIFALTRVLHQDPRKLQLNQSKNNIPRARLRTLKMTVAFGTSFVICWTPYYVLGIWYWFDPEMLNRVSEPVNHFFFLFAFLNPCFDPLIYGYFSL
The experiment is described as follows: in vitro LHRH antagonist potency (pA2) against the agonist leuprolide. The format is cell-based. The conditions noted are these: negative logarithm of the antagonist concentration which shifts the response curve produced by the agonist leuprolide to two-fold higher concentration. Here is the method:
Representative compounds of the present invention were evaluated in in vitro tests for receptor binding (pKI) and for LHRH antagonist potency (pA2). The tests employed the methods detailed in F. Haviv, et al., J. Med. Chem., 32: 2340-2344 (1989). The receptor binding affinities (pKI) are the negative logarithms of the equilibtirum dissociation constants (pA2) are the negative logarithms of the concentration of antagonist which shift the response curve roduced by the agonist leuprolide to two-fold higher concentration. (Leuprolide is the LHRH agonist having the structure 5-oxo-Pro^1 -His^2 -Trp^3 -Ser^4 -Tyr^5 -D-Leu^6 -Leu^7 -Arg^8 -Pro^9 -NHEt and is disclosed and claimed in U.S. Pat. No. 4,005,063.) Typically pA2 values of 9.5 or greater are indicative of good LHRH antagonist potency.

With `CC(=O)N[C@H](Cc1ccc2ccccc2c1)C(=O)N[C@H](Cc1ccc(Cl)cc1)C(=O)N[C@H](Cc1cccnc1)C(=O)N[C@@H](CO)C(=O)N(C)[C@@H](Cc1ccc(O)cc1)C(=O)N[C@H](CCCCNC(=O)NNC(=O)c1ccco1)C(=O)N[C@@H](CC(C)C)C(=O)N[C@@H](CCCCNC(C)C)C(=O)N1CCC[C@H]1C(=O)N[C@H](C)C(N)=O` [Example 2, NAc-D2Nal^1 -D4ClPhe^2 -D3Pal^3 -Ser^4 -NMeTyr^5 -DLys(N-epsilon-Azagly-2-Furoyl)^6 -Leu^7 -Lys(N-epsilon-Isopropyl)^8 -Pro^9 -DAla^10 NH2] (Ac-[d2Nal][dPhe(4-Cl)][d3Pal]S[NMeY][dK]([azaGly-2Furoyl])L[Lys(iPr)]P[dA]-NH2), the Kb (in general, the equilibrium dissociation constant of an antagonist, usually derived from a functional assay) was 0.00141 nM.

Take `CC(=O)N[C@H](Cc1ccc2ccccc2c1)C(=O)N[C@H](Cc1ccc(Cl)cc1)C(=O)N[C@H](Cc1cccnc1)C(=O)N[C@@H](CO)C(=O)N(C)[C@@H](Cc1ccc(O)cc1)C(=O)N[C@H](CCCCNC(=O)CNC(=O)c1ccccn1)C(=O)N[C@@H](CC(C)C)C(=O)N[C@@H](CCCNC(=N)N)C(=O)N1CCC[C@H]1C(=O)N[C@H](C)C(N)=O` [Example 48a, NAc-D2Nal^1 -D4ClPhe^2 -D3Pal^3 -Ser^4 -NMeTyr^5 -DLys(N-epsilon-Gly-Picolinyl)^6 -Leu^7 -Arg^8 -Pro^9 -DAla^10 NH2] (Ac-[d2Nal][dPhe(4-Cl)][d3Pal]S[NMeY][dK]([Gly-Picolinoyl])LRP[dA]-NH2): the Kb is 0.00794 nM.

For `CC(=O)N[C@H](Cc1ccc2ccccc2c1)C(=O)N[C@H](Cc1ccc(Cl)cc1)C(=O)N[C@H](Cc1cccnc1)C(=O)N[C@@H](CO)C(=O)N(C)[C@@H](Cc1ccc(O)cc1)C(=O)N[C@H](CCCCNC(=O)CCNC(=O)C1=C[C@@H](O)[C@@H](O)[C@H](O)C1)C(=O)N[C@@H](CC(C)C)C(=O)N[C@@H](CCCNC(=N)N)C(=O)N1CCC[C@H]1C(=O)N[C@H](C)C(N)=O` [Example 48g, NAc-D2Nal^1 -D4ClPhe^2 -D3Pal^3 -Ser^4 -NMeTyr^5 -DLys(N-epsilon-Beta-alanyl-Shikimyl)^6 -Leu^7 -Arg^8 -Pro^9 -DAla^10 NH2] (Ac-[d2Nal][dPhe(4-Cl)][d3Pal]S[NMeY][dK]([βAla-Shikimoyl])LRP[dA]-NH2), the Kb is 0.0126 nM.

`CCC(=O)NNC(=O)NCCCC[C@@H](NC(=O)[C@H](Cc1ccc(O)cc1)N(C)C(=O)[C@H](CO)NC(=O)[C@@H](Cc1cccnc1)NC(=O)[C@@H](Cc1ccc(Cl)cc1)NC(=O)[C@@H](Cc1ccc2ccccc2c1)NC(C)=O)C(=O)N[C@@H](CC(C)C)C(=O)N[C@@H](CCCCNC(C)C)C(=O)N1CCC[C@H]1C(=O)N[C@H](C)C(N)=O` [Example 58, NAc-D2Nal^1 -D4ClPhe^2 -D3Pal^3 -Ser^4 -NMeTyr^5 -DLys(N-epsilon-Azagly-Propionyl)^6 -Leu^7 -Lys(N-epsilon-Isopropyl)^8 -Pro^9 -DAla^10 NH2] (Ac-[d2Nal][dPhe(4-Cl)][d3Pal]S[NMeY][dK]([azaGly-Propionyl])L[Lys(iPr)]P[dA]-NH2): the Kb was 0.0257 nM.

As for `CC(=O)N[C@H](Cc1ccc2ccccc2c1)C(=O)N[C@H](Cc1ccc(Cl)cc1)C(=O)N[C@H](Cc1cccnc1)C(=O)N[C@@H](CO)C(=O)N(C)[C@@H](Cc1ccc(O)cc1)C(=O)N[C@H](CCCCNC(=O)[C@@H](C)NC(=O)C1=C[C@@H](O)[C@@H](O)[C@H](O)C1)C(=O)N[C@@H](CC(C)C)C(=O)N[C@@H](CCCNC(=N)N)C(=O)N1CCC[C@H]1C(=O)N[C@H](C)C(N)=O` [Example 48d, NAc-D2Nal^1 -D4ClPhe^2 -D3Pal^3 -Ser^4 -NMeTyr^5 -DLys(N-epsilon-D-Ala-Shikimyl)^6 -Leu^7 -Arg^8 -Pro^9 -DAla^10 NH2] (Ac-[d2Nal][dPhe(4-Cl)][d3Pal]S[NMeY][dK]([dA-Shikimoyl])LRP[dA]-NH2), the Kb was 0.0126 nM.

As to `CC(=O)N[C@H](Cc1ccc2ccccc2c1)C(=O)N[C@H](Cc1ccc(Cl)cc1)C(=O)N[C@H](Cc1cccnc1)C(=O)N[C@@H](CO)C(=O)N(C)[C@@H](Cc1ccc(O)cc1)C(=O)N[C@H](CCCCNC(=O)[C@@H](C)NC(=O)C1=C[C@@H](O)[C@@H](O)[C@H](O)C1)C(=O)N[C@@H](CC(C)C)C(=O)N[C@@H](CCCNC(=N)N)C(=O)N1CCC[C@H]1C(=O)N[C@H](C)C(N)=O` [Example 38a, NAc-D2Nal^1 -D4ClPhe^2 -D3Pal^3 -Ser^4 -NMeTyr^5 -DLys(N-epsilon-DAla-Shikimyl)^6 -Leu^7 -Arg^8 -Pro^9 -DAla^10 NH2] (Ac-[d2Nal][dPhe(4-Cl)][d3Pal]S[NMeY][dK]([dA-Shikimoyl])LRP[dA]-NH2), the Kb is 0.0282 nM.

Turning to `CC(=O)N[C@H](Cc1ccc2ccccc2c1)C(=O)N[C@H](Cc1ccc(Cl)cc1)C(=O)N[C@H](Cc1cccnc1)C(=O)N[C@@H](CO)C(=O)N(C)[C@@H](Cc1ccc(O)cc1)C(=O)N[C@H](CCCCNC(=O)[C@@H](Cc1cn(C=O)c2ccccc12)NC(=O)C1=C[C@@H](O)[C@@H](O)[C@H](O)C1)C(=O)N[C@@H](CC(C)C)C(=O)N[C@@H](CCCNC(=N)N)C(=O)N1CCC[C@H]1C(=O)N[C@H](C)C(N)=O` [Example 65a, NAc-D2Nal^1 -D4ClPhe^2 -D3Pal^3 -Ser^4 -NMeTyr^5 -DLys(N-epsilon-DTrp(Formyl)-Shikimyl)^6 -Leu^7 -Arg^8 -Pro^9 -DAla^10 NH2] (Ac-[d2Nal][dPhe(4-Cl)][d3Pal]S[NMeY][dK](X3)LRP[dA]-NH2), the Kb is 0.0251 nM.

As to `CC(=O)N[C@H](Cc1ccc2ccccc2c1)C(=O)N[C@H](Cc1ccc(Cl)cc1)C(=O)N[C@H](Cc1cccnc1)C(=O)N[C@@H](CO)C(=O)N(C)[C@@H](Cc1ccc(O)cc1)C(=O)N[C@H](CCCCNC(=O)CCCCCNC(=O)CCNC(=O)c1cccnc1)C(=O)N[C@@H](CC(C)C)C(=O)N[C@@H](CCCCNC(C)C)C(=O)N1CCC[C@H]1C(=O)N[C@H](C)C(N)=O` [Example 19a, NAc-D2Nal-D4ClPhe^2 -D3Pal^3 -Ser^4 -NMeTyr^5 -DLys[N-epsilon-(N'-epsilon-Aminocaproyl)(N"-beta-Alanyl)-Nicotinyl]^6-Leu^7 -Lys(N-epsilon-Isopropyl)^8 -Pro^9 -DAla^10 NH2] (Ac-[d2Nal][dPhe(4-Cl)][d3Pal]S[NMeY][dK]([Ahx-βAla-Nicotinoyl])L[Lys(iPr)]P[dA]-NH2), the Kb was 0.024 nM.

As to `CC(=O)N[C@H](Cc1ccc2ccccc2c1)C(=O)N[C@H](Cc1ccc(Cl)cc1)C(=O)N[C@H](Cc1cccnc1)C(=O)N[C@@H](CO)C(=O)N(C)[C@@H](Cc1ccc(O)cc1)C(=O)N[C@H](CCCCNC(=O)CNC(=O)c1ccnc2ccccc12)C(=O)N[C@@H](CC(C)C)C(=O)N[C@@H](CCCNC(=N)N)C(=O)N1CCC[C@H]1C(=O)N[C@H](C)C(N)=O` [Example 51d, NAc-D2Nal^1 -D4ClPhe^2 -D3Pal^3 -Ser^4 -NMeTyr^6 -DLys(N-epsilon-Gly-4-Quinolinyl)^6 -Leu^7 -Arg^8 -Pro^9 -DAla^10 NH2] (Ac-[d2Nal][dPhe(4-Cl)][d3Pal]S[NMeY][dK]([Gly-Quinoline4carbonyl])LRP[dA]-NH2), the Kb is 0.0141 nM.

In the case of `CC(=O)N[C@H](Cc1ccc2ccccc2c1)C(=O)N[C@H](Cc1ccc(Cl)cc1)C(=O)N[C@H](Cc1cccnc1)C(=O)N[C@@H](CO)C(=O)N(C)[C@@H](Cc1ccc(O)cc1)C(=O)N[C@H](CCCNC(=O)NNC(=O)c1cccnc1)C(=O)N[C@@H](CC(C)C)C(=O)N[C@@H](CCCCNC(C)C)C(=O)N1CCC[C@H]1C(=O)N[C@H](C)C(N)=O` [Example 53a, NAc-D2Nal^1 -D4ClPhe^2 -D3Pal^3 -Ser^4 -NMeTyr^5 -DOrn(N-epsilon-Azagly-Nicotinyl)^6 -Leu^7 -Lys(N-epsilon-Isopropyl)^8 -Pro^9 -DAla^10 NH2] (Ac-[d2Nal][dPhe(4-Cl)][d3Pal]S[NMeY][dOrn]([azaGly-Nicotinoyl])L[Lys(iPr)]P[dA]-NH2), the antagonist dissociation constant (Kb) was 0.0331 nM.

As to `CC(=O)N[C@H](Cc1ccc2ccccc2c1)C(=O)N[C@H](Cc1ccc(Cl)cc1)C(=O)N[C@H](Cc1cccnc1)C(=O)N[C@@H](CO)C(=O)N(C)[C@@H](Cc1ccc(O)cc1)C(=O)N[C@H](CCCCNC(=O)CNC(=O)CNC(=O)c1ccco1)C(=O)N[C@@H](CC(C)C)C(=O)N[C@@H](CCCCNC(C)C)C(=O)N1CCC[C@H]1C(=O)N[C@H](C)C(N)=O` [Example 57a, NAcD2Nal^1 -D4ClPhe^2 -D3Pal^3 -Ser^4 -NMeTyr^5 -DLys(N-epsilon-Gly-Gly-furoyl)^6 -Leu^7 -Lys(Isp)^8 -Pro^9 -DAla^10 NH2] (Ac-[d2Nal][dPhe(4-Cl)][d3Pal]S[NMeY][dK]([Gly-Gly-2Furoyl])L[Lys(iPr)]P[dA]-NH2), the Kb is 0.0145 nM.

For `CC(=O)N[C@H](Cc1ccc2ccccc2c1)C(=O)N[C@H](Cc1ccc(Cl)cc1)C(=O)N[C@H](Cc1cccnc1)C(=O)N[C@@H](CO)C(=O)N(C)[C@@H](Cc1ccc(O)cc1)C(=O)N[C@H](CCCCNC(=O)[C@@H](CO)NC(=O)CNC(=O)c1cccnc1)C(=O)N[C@@H](CC(C)C)C(=O)N[C@@H](CCCNC(=N)N)C(=O)N1CCC[C@H]1C(=O)N[C@H](C)C(N)=O` [Example 48k, NAc-D2Nal^1 -D4ClPhe^2 -D3Pal^3 -Ser^4 -NMeTyr^5 -DLys(N-epsilon-D-Ser-Gly-Nicotinyl)^6 -Leu^7 -Arg^8 -Pro^9 -DAla^10 NH2] (Ac-[d2Nal][dPhe(4-Cl)][d3Pal]S[NMeY][dK]([dS-Gly-Nicotinoyl])LRP[dA]-NH2), the Kb was 0.017 nM.

Values taken from patent publication US5698522A, “6-position modified decapeptide LHRH antagonists” (Abbott Laboratories, priority 1995, dated 1997).
